Reference: patent US11638709B2, “Rucaparib, Talazoparib, Veliparib, Olaparib and AZD 2461 for treating impaired skin wound healing” (AKRIBES BIOMEDICAL GMBH, priority 2017, dated 2023)

B1: PDGF: Platelet-derived growth factor, protein growth factor (Tonbo Biosciences) (protein, UniProt P01127 82-190, looked up)
Platelet-derived growth …: SLGSLTIAEPAMIAECKTRTEVFEISRRLIDRTNANFLVWPPCVEVQRCSGCCNNRNVQCRPTQVQLRPVQVRKIEIVRKKPIFKKATVTLEDHLACKCETVAAARPVT
modifications: PDGF-BB homodimer

What was measured:
[1] = system: primary human dermal fibroblasts (HDF); assay: Primary human dermal fibroblast (HDF) proliferation assay (2D) with or without wound exudate; format: cell-based; details: for wound exudate-induced inhibition of fibroblast proliferation: FIG. 20, with wound exudate; for fibroblast proliferation in the absence of WE: FIG. 11, 2D fibroblast culture without WE (control); for HDF proliferation with wound exudate #78, plus PDGF / HDF proliferation with wound exudate #78: FIG. 15; for HDF proliferation with wound exudate #78, plus PDGF: compound + PDGF 20 ng/ml in medium + WE #78; for HDF proliferation with wound exudate #78: compound in medium + WE #78; for effect on PDGF-induced induction of proliferation in the absence of WE: with PDGF
Procedure: (§1) Primary human dermal fibroblasts (HDF) were purchased from CELLnTEC, Bern. They were routinely grown in Dulbecco's modified Eagle's medium (DMEM) containing 10% FCS, 2 mM glutamine, and 100 U/ml penicillin/100 μg/ml streptomycin. Media, antibiotics, and glutamine were bought from Lonza. The cells were used at passage 5-15. Cells were trypsinized and seeded at 5000 cells/well in 200 μl into the inner wells of 96-well plates. The outer wells were loaded with sterile water. The cells were allowed to adhere overnight and then incubated for 72 hours at 37° C. under the following conditions: graded compound concentrations or 20 ng/ml PDGF-BB (Tonbo Biosciences) in the absence or presence of different dilutions of sterile-filtered WE in medium. For control samples, 200 μl medium was added instead of specific stimuli. Alternatively, the cells were seeded into 384-well plates at 2500 cells/well directly together with test compounds or growth factors and WE or medium in a total volume of […].
(§2) At the end of the 72-hour incubation period, supernatants were removed for the determination of IL-1ß, and the cells were fixed with 4% paraformaldehyde (Morphisto) for 15 minutes at room temperature and washed 3 times with PBS. A control plate was fixed after the overnight adherence of the cells (day 1) to determine the starting cell number.
Total cellular protein was determined as a measure of cell number by staining the fixed cells with sulforhodamine B (SRB, Sigma). A 0.4% SRB solution in 1% acetic acid was added to the wells for 30 minutes. The wells were then washed with 1% acetic acid until the wash solution remained colorless. […] The average absorbance of the sample representing the day 1 starting cell number (for 96-well plates) was subtracted from the absorbance values of the WE-treated cells.
All experiments were carried out in triplicate for each sample and concentration, and means±standard deviation (SD) were used for the evaluation of the experiment. Results are expressed as percentage of control values for unstimulated cells.
(§3) Low molecular weight compounds (see list in Table 1) were dissolved in DMSO (Bioreagent for cell culture, Sigma) at 10 mM or 100 mM and diluted at least 1:1000 in medium for cellular assays (final DMSO concentration ≤0.1%).
(§4) Cells were incubated with compounds for 72 hours in proliferation assays and up to 8 days for FDM assay (refreshed after 4 days). When compounds were tested for their effect on WE stimulation, the incubation of cells with compounds was started and ended simultaneously with WE-incubation.

[2] = system: primary human dermal fibroblasts (HDF); assay: Fibroblast-derived matrix (FDM) formation assay (3D) with wound exudate; format: cell-based; details: for 3D fibroblast-derived matrix formation assay, activity: FIGS. 9 and 10; for 3D fibroblast culture (FDM formation), effect of PARP inhibitors: FIG. 7, WE from patient #78
Procedure: HDF cells were seeded at 5000 cells/well on day −3 into 96-well tissue culture plates (1250 cells/well for 384-well plates), which had been pre-coated for 1 hour at 37° C. with 0.2% gelatin solution (Sigma). When the cells reached confluence (=day 0), a matrix promoting supplement (vitamin C: 2-phospho-L-ascorbic acid trisodium salt, 100 μg/ml; Sigma) was added together with test samples containing PDGF-BB, TGF-ß1 or graded concentrations of compounds −/+WE as described for the HDF proliferation assay. After 4 days, medium was replaced by fresh vitamin C—and stimulus—as well as compound-containing medium, maintaining the conditions initiated on day 0. TGF-ß1 and PDGF-BB were included as positive controls to promote FDM formation and cell growth, respectively. After a total incubation time of 8 days, FDM production was measured in fixed cultures via SRB staining and evaluated as described above. In some cases, the experiment was stopped and evaluated already on day 4.
as §3, §4

[3] = system: IL-1ß secretion by primary human dermal fibroblasts; assay: IL-1ß secretion in the HDF proliferation assay with wound exudate (ELISA); format: cell-based; details: FIG. 20
Procedure: as §2
IL-1ß levels were determined with a commercial ELISA kit. The amount of IL-1ß contained in the wound exudate added to the cells was subtracted from the total IL-ß in the supernatants in order to determine the cytokine secreted by the cells.

PARP1 = PARP1 (Homo sapiens, UniProt P09874); details: cited from earlier work
PARP1, sequence (P09874 whole entry, species assumed): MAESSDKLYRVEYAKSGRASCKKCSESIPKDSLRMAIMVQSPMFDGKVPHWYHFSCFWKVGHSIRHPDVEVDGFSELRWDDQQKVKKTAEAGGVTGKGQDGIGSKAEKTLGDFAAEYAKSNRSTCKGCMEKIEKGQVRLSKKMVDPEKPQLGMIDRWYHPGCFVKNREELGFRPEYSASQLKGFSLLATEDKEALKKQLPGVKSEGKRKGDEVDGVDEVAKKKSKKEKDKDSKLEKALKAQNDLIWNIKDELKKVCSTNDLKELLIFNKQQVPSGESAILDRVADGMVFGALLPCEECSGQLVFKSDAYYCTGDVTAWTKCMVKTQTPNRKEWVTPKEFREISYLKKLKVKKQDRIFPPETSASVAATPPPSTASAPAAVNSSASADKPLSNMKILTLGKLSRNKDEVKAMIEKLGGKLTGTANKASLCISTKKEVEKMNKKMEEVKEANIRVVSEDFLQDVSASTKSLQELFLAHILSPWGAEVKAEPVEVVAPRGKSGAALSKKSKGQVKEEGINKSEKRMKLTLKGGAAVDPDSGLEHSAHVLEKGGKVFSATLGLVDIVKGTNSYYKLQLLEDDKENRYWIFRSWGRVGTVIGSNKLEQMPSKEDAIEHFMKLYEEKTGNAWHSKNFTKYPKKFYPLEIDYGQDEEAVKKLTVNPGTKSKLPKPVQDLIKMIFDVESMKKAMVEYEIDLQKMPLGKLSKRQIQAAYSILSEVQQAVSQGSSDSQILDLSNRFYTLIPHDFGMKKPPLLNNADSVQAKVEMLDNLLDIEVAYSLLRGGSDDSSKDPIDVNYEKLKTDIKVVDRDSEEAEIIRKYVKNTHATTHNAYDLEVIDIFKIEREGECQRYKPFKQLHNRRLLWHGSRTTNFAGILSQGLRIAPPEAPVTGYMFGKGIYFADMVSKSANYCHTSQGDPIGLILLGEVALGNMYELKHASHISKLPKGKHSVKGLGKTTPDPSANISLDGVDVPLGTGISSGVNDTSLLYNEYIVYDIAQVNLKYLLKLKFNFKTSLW

PARP = details: cited from earlier work
[4] = system: alpha-smooth muscle actin (α-SMA) in human dermal fibroblasts; assay: Immunolocalization of alpha-smooth muscle actin in 2D HDF culture; format: cell-based; details: FIG. 16; absence of wound exudate; TGF-ß 20 ng/ml
Procedure: as §1
After fixation with paraformaldehyde, the cells were incubated for 1 hour at room temperature with a monoclonal mouse-anti-human antibody against alpha-smooth muscle actin (α-SMA) from e-Bioscience, washed 3 times with PBS and developed with an Alexa Fluor-labelled donkey-anti-mouse IgG (Molecular Probes). […]

Molecule | 2D fibroblast culture (HDF proliferation), effect of PARP inhibitors ([1]; FIG. 9, WE from patient #43) | 2D fibroblast culture (HDF proliferation), effect of PARP inhibitors ([1]; FIG. 10, WE from patient #78) | wound exudate-induced inhibition of fibroblast proliferation [1] | wound exudate-induced IL-1ß secretion [3] | 3D fibroblast culture (FDM formation), effect of PARP inhibitors [2] | 2D fibroblast culture (HDF proliferation), effect of PARP inhibitors ([1]; FIG. 8, WE from patient #78) | also measured
2-phospho-L-ascorbic acid trisodium salt [vitamin C] | – | – | – | – | – | – | 2D fibroblast culture, enhancement of PARP inhibitor compound effects by co-agent ([1]; FIG. 12, WE from patient #78, dexamethasone 3 nM, vitamin C 100 μg/ml): synergistically enhance the PARP inhibitor compound effects; 2D fibroblast culture, enhancement of PARP inhibitor compound effects by co-agent ([1]; FIG. 13, WE from patient #43): synergistically enhance the PARP inhibitor compound effects
Oc1cccc2c(O)nccc12 [1,5-IQD, 1,5-Isoquinolinediol] | either inactive or exhibit a very weak activity | either inactive or exhibit a very weak activity | – | – | – | – | 3D fibroblast-derived matrix formation assay, activity [2]: either inactive or only weakly active
NC(=O)c1cccc(N)c1 [3-AB, 3-Aminobenzamide] | either inactive or exhibit a very weak activity | either inactive or exhibit a very weak activity | did not show any of these effects | did not show any of these effects | – | – | 3D fibroblast-derived matrix formation assay, activity [2]: either inactive or only weakly active
CN(C)Cc1ccc(-c2nc3cccc4c3n2CCNC4=O)cc1 [AG-14351] | – | – | enhanced cell proliferation | reducing IL-1ß secretion | only a very weak effect at a concentration of 10 μM | only a very weak effect at a concentration of 10 μM | inhibits PARP1 with an 1050 (PARP1): low nM range
COC1CCN(C(=O)c2cc(Cc3n[nH]c(=O)c4ccccc34)ccc2F)CC1 [AZD-2461] | – | – | enhanced cell proliferation | reducing IL-1ß secretion | strong and consistent positive effect | strong and consistent positive effect | fibroblast proliferation in the absence of WE [1]: either no effect on fibroblast proliferation in the absence of wound exudate, or only a marginal effect
O=C(c1cc(Cc2n[nH]c(=O)c3ccccc23)ccc1F)N1CCN(C(=O)C2CC2)CC1 [Olaparib] | – | – | enhanced cell proliferation | reducing IL-1ß secretion | strong and consistent positive effect | strong and consistent positive effect | fibroblast proliferation in the absence of WE [1]: either no effect on fibroblast proliferation in the absence of wound exudate, or only a marginal effect; HDF proliferation with wound exudate #78, plus PDGF [1]: even further enhanced by the addition of PDGF; HDF proliferation with wound exudate #78 [1]: dose-dependent increase of HDF proliferation; effect on PDGF-induced induction of proliferation in the absence of WE ([1]; no WE): either had no effect on PDGF-induced induction of proliferation or showed inhibition of the PDGF effect
CN(C)CC(=O)Nc1ccc2[nH]c(=O)c3ccccc3c2c1.Cl [PJ-34] | either inactive or exhibit a very weak activity | either inactive or exhibit a very weak activity | – | – | – | – | 3D fibroblast-derived matrix formation assay, activity [2]: either inactive or only weakly active; 2D fibroblast culture, PARP inhibitor effect ± dexamethasone ± Vit. C ([1]; FIG. 12, WE from patient #78): only a weak effect; 2D fibroblast culture, PARP inhibitor effect ± dexamethasone ± Vit. C ([1]; FIG. 13, WE from patient #43): only a weak effect
CNCc1ccc(-c2[nH]c3cc(F)cc4c3c2CCNC4=O)cc1 [Rucaparib] | strong and consistent positive effect | strong and consistent positive effect | enhanced cell proliferation | reducing IL-1ß secretion | strong and consistent positive effect | strong and consistent positive effect | fibroblast proliferation in the absence of WE [1]: either no effect on fibroblast proliferation in the absence of wound exudate, or only a marginal effect; HDF proliferation with wound exudate #78, plus PDGF [1]: even further enhanced by the addition of PDGF; HDF proliferation with wound exudate #78 [1]: dose-dependent increase of HDF proliferation; effect on PDGF-induced induction of proliferation in the absence of WE ([1]; no WE): either had no effect on PDGF-induced induction of proliferation or showed inhibition of the PDGF effect
NC(=O)c1cccc2cn(-c3ccc([C@@H]4CCCNC4)cc3)nc12 [niraparib] | – | – | did not show any of these effects | did not show any of these effects | does not show any activity | does not show any activity | inhibits PARP with an 1050 (PARP): low nM range
TGF-ß: Transforming growth factor beta | – | – | – | – | – | – | staining for myofibroblast marker alpha-smooth muscle actin (α-SMA) [4]: increases the staining for the myofibroblast marker alpha-smooth muscle actin (α-SMA)
B1 | – | – | – | – | – | – | HDF proliferation in the presence of WE #78 ([1]; FIG. 14, WE #78, veliparib 10 μM, talazoparib 1 μM, PDGF 20 ng/ml): has no effect; HDF proliferation in the absence of WE ([1]; FIG. 14, no WE, veliparib 10 μM, talazoparib 1 μM, PDGF 20 ng/ml): induces HDF proliferation; HDF proliferation with wound exudate #78 [1]: inactive
